The values that follow are results of earlier work, collected in US20040101555A1, “Method for stable and controlled delivery of (—)-hydroxycitric acid” (priority 2002, published 2004).

The conditions of data set [1]: over a three week period; higher dosage, alone.
For data set [2] the following is noted: single large oral dose or two divided oral doses totaling one fourth of the single dose; high-sugar diet.

Regarding `O=C([O-])CC(O)(C(=O)[O-])C(O)C(=O)[O-].[K+].[K+].[K+]` (stereo not drawn) [potassium (−)-hydroxycitirate, potassium (−)-hydroxycitrate], in data set [1], the average weight loss is 3 pounds per week.
Turning to `O=C(O)CC(O)(C(=O)O)C(O)C(=O)O` (single isomer, unassigned; (-)) [HCA, (−)-Hydroxycitric acid], the “reduction in food consumption” value in data set [2] is recorded as at least 10%.
